Assay results reported in patent US20030134342A1, “Binding-specific peptides, binding-specific carrier molecules, and uses thereof” (priority 2001, published 2003).
Where a SMILES comes first, the peptide text is derived from it.

Tests used:
[1] = Viability of HL60 cells, trypan blue; assay type: cell-based; details: human
Procedure: (§1) Studies were conducted of the effects of the free G5 12-8B (artificially synthesized), phage displaying G5 12-8B, the free A2 11-24 peptide, phage displaying the A2 11-24 peptide, a combination of the free G5 and A2 peptides, a combination of pure peptides plus phage displaying the peptides, and several concentrations of peptide.

[2] = test system: human myeloid leukemia cell line HL60; assay: Differentiation of HL60 cells; assay type: cell-based
[3] = test system: human myeloid leukemia cell line HL60; assay: Differentiation of HL60 cells; assay type: cell-based; remark: listed apart in the source
Description: FIG. 1 illustrates the effects of several peptides on the differentiation of the human myeloid leukemia cell line HL60.
(§2) Such inhibition is not the result of the killing of the cells. The data are graphed in the Figures.
(§3) DMSO, dimethylsulfoxide, is a chemical that induces HL60 cellular differentiation.
The level of differentiation of the HL60 cells after 5 or 7 days growth in the presence or absence of the various phage and peptides combinations described above are shown in FIG. 1. The high level of differentiation that has been achieved is notable from the graph in FIG. 1. The levels of differentiation in the presence of peptide exceed that produced by the presence of phage alone.

[4] = test system: human myeloid leukemia cell line HL60; assay: Proliferation of HL60 cells: cell number after 7 days culture; assay type: cell-based; details: for No. Cells: HL60, after 7 days; for Percent relative to Controls: HL60 cell number after 7 days
Description: The number of cells after 7 days culture growth were counted in the presence or absence of the different molecules. Results are shown for the free G5 12-8B peptide alone (artificially synthesized), phage displaying G5 12-8B, the free A2 11-24 peptide, phage displaying the A2 11-24 peptide, a combination of the free G5 and A2 peptides, a combination of the free pure with phage displaying the peptides, and several concentrations of peptide.
as §2
The control number of cells per milliliter (2.6) is an average of results from dual controls (2.6×10^6).
as §3

CD34+ cells = assay: ELISA binding of phage displaying peptides to fixed cells: CD34+ cells; design: species or system human; details: in words
Procedure: (§4) Preliminary experiments were performed to identify specific peptides by using cells from patients diagnosed with CLL, CML, and AML. The screening was performed by incubating the cells with the phage-peptides from the library. This incubation allows interaction between the peptide and the cell. The binding step was followed by several washes to eliminate free phage. Phage bound on the cell surface was eluted.
(§5) After the last round of binding with one cell type, the eluted phage was plated on an agar plate with the appropriate selection antibiotics. Each individual colony, corresponding to one individual peptide sequence, was amplified in a 96-well plate. After purification, these peptides were tested for their ability to bind to the cells in a microtiter plate by ELISA.
(§6) Each peptide was dispensed in a 96-well plate, containing cells previously fixed. […] The bound phages were detected by using a monoclonal anti-M13 antibody/horseradish peroxidase (HRP) conjugate. After addition of the HRP substrate, the intensity of the coloration was measured by spectrophotometry. The light absorbance values (optical density values, O.D. values) are proportional to the number of phage bound to the cells.
(§7) The binding to various cell types were examined to evaluate the cellular specificity of the phage clones. […] Cells from normal donors (non-leukemic) were also evaluated to ascertain leukemia cell specificity. […]

AML bone marrow cells = assay: Methylcellulose culture of AML bone marrow cells with peptides: proliferation (colonies) and differentiation (morphology); assay type: cell-based, human; details: patient numbers
Procedure: The effect of various peptides were analyzed for their biological activity on cells from a patient with acute myelogenous leukemia. The AML cells were cultured into a semi-solid medium of methylcellulose in order to determine the cloning efficiency and the differentiation of the cells. The various peptides were introduced into the semi-solid cell culture at a concentration of 10^−4 M (0.1 mM) peptide. After 14 days continuous incubation of the cell cultures, the morphology of the cells were analyzed. The data are shown in FIG. 7 for the cultures and show the percentage of immature cells in the culture (solid black), the percentage of small myeloblasts (solid white), the percentage of young cells (dark gray), and the relative percentage of monocytes to […] (light gray). The data regarding the biological response of AML bone marrow cells in the presence of the various peptides is shown in the table below.

AML cells = assay: ELISA binding of phage displaying peptides to fixed cells: AML cells; design: species or system human; details: in words
Procedure: as §4, §5
(§8) Each peptide was dispensed in a 96-well plate, containing cells previously fixed. Each colony was tested in a triplicate assay with the appropriate controls. After incubation of cells with an individual clone, the wells were washed to eliminate free phage. The bound phages were detected by using a monoclonal anti-M13 antibody/horseradish peroxidase (HRP) conjugate. After addition of the HRP substrate, the intensity of the coloration was measured by spectrophotometry. The light absorbance values (optical density values, O.D. values) are proportional to the number of phage bound to the cells.
(§9) The binding to various cell types were examined to evaluate the cellular specificity of the phage clones. For example, the clones from phage eluted from CLL patient cells were assayed for their ability to bind cells from an AML patient. Cells from normal donors (non-leukemic) were also evaluated to ascertain leukemia cell specificity.
(§10) Peripheral blood and bone marrow samples were collected from patients after informed consent. The samples were collected in tubes containing sodium citrate. Mononuclear cells were isolated by Ficoll-Hypaque density gradient separation and collection of the cells at a density of 1.077 g/mL.
(§11) The wells of a 96-well plate were pre-treated with 100 μL of poly-L-lysine (0.01 mg/mL in phosphate-buffered saline, 120 mM NaCl, 2.7 mM KCl, 10 mM phosphate buffer, “PBS”) for 2-16 hours at room temperature. After draining the poly-L-lysine from the wells, the excess poly-L-lysine was removed from the wells by flicking. The cells were washed with PBS, then suspended in PBS and diluted to a final concentration of […]. The cell suspension (200 μL; 250,000 cells) were added to each well needed for the assay.
(§12) The plates were centrifuged at 500 g for about 5 minutes in a microplate carrying centrifuge when available. The cells were fixed to the wells through the addition of glutaraldehyde (100 μL of 0.5%) and incubating at room temperature for about an hour. The glutaraldehyde was removed and the cell-coated wells washed once with PBS. Alternatively, the cells were permitted to settle to the well bottoms for about 4 hours at 37° C., and the glutaraldehyde fixative was added after removing the PBS.
(§13) A glycine solution (200 μl of 0.1 M glycine in PBS) containing bovine serum albumin (BSA; 1%) was added to the wells and permitted to incubate for 30 minutes to block excess glutaraldehyde. The glycine was removed, and the cell-coated wells washed once with PBS. A sodium pyrophosphate solution (200 μL of 0.3 mg/mL NaPPi) was added to the wells and incubated for an hour at room temperature to neutralize lysine charges. The pyrophosphate solution was removed and the wells washed once with PBS. Multiwell microtiter plates with cell-coated wells were stored at 4° C. with fresh PBS solution in the coated wells.
(§14) The cells to be studied for binding were suspended in PBS and adsorbed onto to a poly-L-lysine pretreated 96-well plate and kept at 4° C. The PBS was removed from the wells and an H2O2 solution in PBS (6% H2O2 in 200 μL/well) was added. […]

CML cells = assay: ELISA binding of phage displaying peptides to fixed cells: CML cells; design: species or system human; details: in words
Procedure: as §4, §5, §8, §9, §10, §11, §12, §13, §14

CLL cells = assay: ELISA binding of phage displaying peptides to fixed cells: CLL cells; design: species or system human; details: in words
Procedure: as §4, §5, §8, §9, §10, §11, §12, §13, §14

[5] = test system: human myeloid leukemia cell line HL60; assay: Viability of HL60 cells, trypan blue; assay type: cell-based; details: for Day 5 Viability: 5 day; for Day 7 Viability: 7 day; for Day 9 Viability: 9 day
Procedure: as §1

[6] = test system: human bone marrow AML cells; assay: Effect of phage-peptides on differentiation, cell number and viability of freshly obtained AML patient bone marrow cells cultured seven days; assay type: cell-based; details: for Number of Cells / Percent Differentiation: phage-peptides; for Percent differentiated in Specimen 1 / Percent differentiated in Specimen 2: peptides in bacteriophage, AML cells cultured seven days in vitro
Description: The effect of various phage-peptides were studied on the differentiation of cells from two AML patients.

normal bone marrow cells = assay: ELISA binding of phage displaying peptides to fixed cells: normal bone marrow; design: species or system human; details: in words
Procedure: as §4, §5, §6, §7

cord blood cells = assay: ELISA binding of phage displaying peptides to fixed cells: cord blood cells; design: species or system human; details: in words
Procedure: as §4, §5, §6, §7

Molecule: C[S+](C)[O-] [DMSO, dimethylsulfoxide, reference compound]
- viability at 5 days [1]: 98%
- viability at 7 days [1]: 97%
- viability at 9 days [1]: 82%
- Day 9 % Diff. ([2]; concentration not given): off scale
- Day 5 % Diff. ([3]; concentration not given): off scale
- Day 7 % Diff. ([3]; concentration not given): off scale
- No. Cells ([4]; concentration not given): 0.9 10^6 cell/mL
- Percent relative to Controls ([4]; concentration not given): 30%

Molecule: CIEETARKGC [A2 11-24]
- binding of phage displaying the peptide to CD34+ cells (CD34+ cells): bind
- Activation of Differentiation (AML bone marrow cells): 3
- binding of phage displaying the peptide to AML cells (AML cells): bind
- binding of phage displaying the peptide to CML cells (CML cells): bind
- binding of phage displaying the peptide to CLL cells (CLL cells): not

Molecule: NCCCC[C@H](NC(=O)CNC(=O)[C@H](CO)NC(=O)[C@H](Cc1c[nH]c2ccccc12)NC(=O)[C@H](CCC(N)=O)NC(=O)[C@H](CCC(N)=O)NC(=O)[C@H](Cc1ccccc1)NC(=O)[C@H](CCC(=O)O)NC(=O)[C@@H](N)CS)C(=O)N[C@@H](CS)C(=O)O [G5 12-8B peptide] (H-CEFQQWSGKC-OH; N-terminus and C-terminus assumed)
- Day 5 Viability [5]: 98%
- Day 7 Viability [5]: 96%
- Day 9 Viability [5]: 90%
- Day 9 % Diff. ([2]; free peptide at 10^−4 M): 22%
- Day 5 % Diff. ([3]; free peptide at 10^−4 M): 22%
- Day 5 % Diff., figure in parentheses ([3]; free peptide at 10^−4 M): 183%
- Day 7 % Diff. ([3]; free peptide at 10^−4 M): 31%
- Day 7 % Diff., figure in parentheses ([3]; free peptide at 10^−4 M): 194%
- No. Cells ([4]; free peptide at 10^−4 M): 1.2 10^6 cell/mL
- Percent relative to Controls ([4]; free peptide at 10^−4 M): 48%

Molecule: EFQQWSGK [G5 12-8B phage]
- Number of Cells ([6]; Patient 1): 1.11 106
- Percent Differentiation ([6]; Patient 1): 27.9%
- Number of Cells ([6]; Patient 2, listed as GS-12-8B): 0.31 106
- Percent Differentiation ([6]; Patient 2, listed as GS-12-8B): 61%
- Percent differentiated in Specimen 1 [6]: 28%
- Percent differentiated in Specimen 2 [6]: 61%
- Day 9 % Diff. ([2]; phage 75): 46%
- Day 5 % Diff. ([3]; phage 75): 17%
- Day 5 % Diff., figure in parentheses ([3]; phage 75): 142%
- Day 7 % Diff. ([3]; phage 75): 46%
- Day 7 % Diff., figure in parentheses ([3]; phage 75): 288%
- No. Cells ([4]; phage 75): 3.8 10^6 cell/mL
- Percent relative to Controls ([4]; phage 75): 140%

Molecule: IEETARKG [A2 11-24 phage]
- Number of Cells ([6]; Patient 1): 0.75 106
- Percent Differentiation ([6]; Patient 1): 79.2%
- Number of Cells ([6]; Patient 2): 0.33 106
- Percent Differentiation ([6]; Patient 2): 49.5%
- Percent differentiated in Specimen 1 [6]: 79%
- Percent differentiated in Specimen 2 [6]: 50%
- Day 9 % Diff. ([2]; phage 75): 64%
- Day 5 % Diff. ([3]; phage 75): 18%
- Day 5 % Diff., figure in parentheses ([3]; phage 75): 150%
- Day 7 % Diff. ([3]; phage 75): 52%
- Day 7 % Diff., figure in parentheses ([3]; phage 75): 325%
- No. Cells ([4]; phage 75): 1.6 10^6 cell/mL
- Percent relative to Controls ([4]; phage 75): 62%

Molecule: KRGIHPES [B3 9-1-01 no Cys]
- binding of phage displaying the peptide to AML cells (AML cells): not
- binding of phage displaying the peptide to normal bone marrow (normal bone marrow cells): bind

Molecule: CC[C@H](C)[C@H](NC(=O)[C@@H](N)CS)C(=O)N[C@@H](CCC(=O)O)C(=O)N[C@@H](CCC(=O)O)C(=O)N[C@H](C(=O)N[C@@H](C)C(=O)N[C@@H](CCCNC(=N)N)C(=O)N[C@@H](CCCCN)C(=O)NCC(=O)N[C@@H](CS)C(=O)O)[C@@H](C)O [A2 11-24 peptide] (H-CIEETARKGC-OH; N-terminus and C-terminus assumed)
- Day 5 Viability [5]: 100%
- Day 7 Viability [5]: 96%
- Day 9 Viability [5]: 87%
- Day 9 % Diff. ([2]; free peptide at 10^−4 M): 25%
- Day 5 % Diff. ([3]; free peptide at 10^−4 M): 18%
- Day 5 % Diff., figure in parentheses ([3]; free peptide at 10^−4 M): 150%
- Day 7 % Diff. ([3]; free peptide at 10^−4 M): 30%
- Day 7 % Diff., figure in parentheses ([3]; free peptide at 10^−4 M): 188%
- No. Cells ([4]; free peptide at 10^−4 M): 2.0 10^6 cell/mL
- Percent relative to Controls ([4]; free peptide at 10^−4 M): 77%

Molecule: VSEDIYDA [E11 12-8B]
- binding of phage displaying the peptide to AML cells (AML cells): bind
- binding of phage displaying the peptide to cord blood cells (cord blood cells): bind
- binding of phage displaying the peptide to CML cells (CML cells): bind
